Measurements: the supplement of paper PMC13207355
Where a name gives a salt, the structure may show the parent alone.

Assays:
Conditions in all cases: exposure time: 72 h
E34 [1] = patient-derived glioblastoma stem cells of proneural subtype; test: surviving fraction (nuclei count normalised to DMSO); higher = more cells surviving (less toxic)
E21 [2] = patient-derived glioblastoma stem cells of mesenchymal subtype; test: as above
FT3469 [3] = normal neural stem cell line; test: as above
E13 [4] = patient-derived glioblastoma stem cells of classical subtype; test: as above
E31 [5] = patient-derived glioblastoma stem cells of proneural subtype; test: as above
E28 [6] = patient-derived glioblastoma stem cells of classical subtype; test: as above
E57 [7] = patient-derived glioblastoma stem cells of mesenchymal subtype; test: as above
E34 [8] = test: phenotypic distance (Euclidean, principal components) from DMSO controls (arbitrary units); higher = stronger morphological change
E21 [9] = test: as above
FT3469 [10] = test: as above
E13 [11] = test: as above
E31 [12] = test: as above
E28 [13] = test: as above
E57 [14] = test: as above
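Throughout, for phenotypic distance (Euclidean, principal components) from DMSO controls: cell Painting imaging in 384-well plates, CellProfiler features reduced to at least 20 principal components, Euclidean distance versus same-plate DMSO vehicle wells (0.1% v/v), median over six images per well.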
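Throughout, for surviving fraction (nuclei count normalised to DMSO): nuclei counted by high-content imaging of Hoechst-stained cells in laminin-coated 384-well plates, relative to 0.1% DMSO vehicle wells, with staurosporine as cell-death control.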

Cc1c2ccncc2c(C)c2c1[nH]c1ccccc12 [Ellipticine]
Conditions	phenotypic distance	surviving fraction
E13 [4], 4.1 nM	–	1.06
E13 [4], 12.3 nM	–	0.896
E13 [4], 37 nM	–	0.936
E13 [4], 111.1 nM	–	0.958
E13 [4], 333.3 nM	–	0.912
E13 [4], 1000 nM	–	0.784
E13 [4], 3000 nM	–	0.473
E13 [11], 4.1 nM	0.815	–
E13 [11], 12.3 nM	0.556	–
E13 [11], 37 nM	0.741	–
E13 [11], 111.1 nM	0.932	–
E13 [11], 333.3 nM	1.52	–
E13 [11], 1000 nM	2.23	–
E13 [11], 3000 nM	4.47	–
E21 [2], 4.1 nM	–	0.991
E21 [2], 12.3 nM	–	1.07
E21 [2], 37 nM	–	0.888
E21 [2], 111.1 nM	–	0.831
E21 [2], 333.3 nM	–	0.754
E21 [2], 1000 nM	–	0.72
E21 [2], 3000 nM	–	0.499
E21 [9], 4.1 nM	1.16	–
E21 [9], 12.3 nM	1.17	–
E21 [9], 37 nM	1.79	–
E21 [9], 111.1 nM	2.04	–
E21 [9], 333.3 nM	2.29	–
E21 [9], 1000 nM	2.28	–
E21 [9], 3000 nM	2.98	–
E28 [6], 4.1 nM	–	1.11
E28 [6], 12.3 nM	–	1.11
E28 [6], 37 nM	–	1.08
E28 [6], 111.1 nM	–	1.05
E28 [6], 333.3 nM	–	0.967
E28 [6], 1000 nM	–	0.668
E28 [6], 3000 nM	–	0.352
E28 [13], 4.1 nM	0.578	–
E28 [13], 12.3 nM	0.641	–
E28 [13], 37 nM	0.588	–
E28 [13], 111.1 nM	0.478	–
E28 [13], 333.3 nM	0.804	–
E28 [13], 1000 nM	1.01	–
E28 [13], 3000 nM	2.73	–
E31 [5], 4.1 nM	–	1.02
E31 [5], 12.3 nM	–	0.977
E31 [5], 37 nM	–	1.07
E31 [5], 111.1 nM	–	0.963
E31 [5], 333.3 nM	–	0.768
E31 [5], 1000 nM	–	0.648
E31 [5], 3000 nM	–	0.395
E31 [12], 4.1 nM	0.486	–
E31 [12], 12.3 nM	0.52	–
E31 [12], 37 nM	0.379	–
E31 [12], 111.1 nM	0.662	–
E31 [12], 333.3 nM	0.789	–
E31 [12], 1000 nM	1.24	–
E31 [12], 3000 nM	2.27	–
E34 [1], 4.1 nM	–	1.07
E34 [1], 12.3 nM	–	0.94
E34 [1], 37 nM	–	1.04
E34 [1], 111.1 nM	–	0.952
E34 [1], 333.3 nM	–	0.935
E34 [1], 1000 nM	–	0.753
E34 [1], 3000 nM	–	0.534
E34 [8], 4.1 nM	0.723	–
E34 [8], 12.3 nM	0.43	–
E34 [8], 37 nM	0.492	–
E34 [8], 111.1 nM	0.978	–
E34 [8], 333.3 nM	1.01	–
E34 [8], 1000 nM	1.43	–
E34 [8], 3000 nM	2.39	–
E57 [7], 4.1 nM	–	0.88
E57 [7], 12.3 nM	–	0.933
E57 [7], 37 nM	–	0.926
E57 [7], 111.1 nM	–	0.959
E57 [7], 333.3 nM	–	0.867
E57 [7], 1000 nM	–	0.784
E57 [7], 3000 nM	–	0.409
E57 [14], 4.1 nM	1.05	–
E57 [14], 12.3 nM	0.752	–
E57 [14], 37 nM	1.12	–
E57 [14], 111.1 nM	1.64	–
E57 [14], 333.3 nM	1.87	–
E57 [14], 1000 nM	2.3	–
E57 [14], 3000 nM	4.58	–
FT3469 [3], 4.1 nM	–	1.13
FT3469 [3], 12.3 nM	–	1.11
FT3469 [3], 37 nM	–	1.08
FT3469 [3], 111.1 nM	–	1.11
FT3469 [3], 333.3 nM	–	1.3
FT3469 [3], 1000 nM	–	0.787
FT3469 [3], 3000 nM	–	0.649
FT3469 [10], 4.1 nM	1.04	–
FT3469 [10], 12.3 nM	0.711	–
FT3469 [10], 37 nM	0.462	–
FT3469 [10], 111.1 nM	0.869	–
FT3469 [10], 333.3 nM	1.18	–
FT3469 [10], 1000 nM	1.47	–
FT3469 [10], 3000 nM	1.7	–

C=C[C@H]1CN2CC[C@H]1C[C@@H]2[C@@H](O)c1ccnc2ccc(OC)cc12 [Quinidine hydrochloride monohydrate]
Conditions	phenotypic distance	surviving fraction
E13 [4], 4.1 nM	–	0.965
E13 [4], 12.3 nM	–	1.04
E13 [4], 37 nM	–	1.06
E13 [4], 111.1 nM	–	1.03
E13 [4], 333.3 nM	–	0.954
E13 [4], 1000 nM	–	1.09
E13 [4], 3000 nM	–	1.01
E13 [11], 4.1 nM	2.06	–
E13 [11], 12.3 nM	2.74	–
E13 [11], 37 nM	0.288	–
E13 [11], 111.1 nM	0.43	–
E13 [11], 333.3 nM	3.29	–
E13 [11], 1000 nM	0.415	–
E13 [11], 3000 nM	0.498	–
E21 [2], 4.1 nM	–	0.736
E21 [2], 12.3 nM	–	1.03
E21 [2], 37 nM	–	0.863
E21 [2], 111.1 nM	–	1.03
E21 [2], 333.3 nM	–	1
E21 [2], 1000 nM	–	0.964
E21 [2], 3000 nM	–	0.865
E21 [9], 4.1 nM	1.42	–
E21 [9], 12.3 nM	0.785	–
E21 [9], 37 nM	0.783	–
E21 [9], 111.1 nM	0.852	–
E21 [9], 333.3 nM	0.814	–
E21 [9], 1000 nM	0.565	–
E21 [9], 3000 nM	1.06	–
E28 [6], 4.1 nM	–	1.12
E28 [6], 12.3 nM	–	0.991
E28 [6], 37 nM	–	1.14
E28 [6], 111.1 nM	–	1.02
E28 [6], 333.3 nM	–	1.15
E28 [6], 1000 nM	–	1.07
E28 [6], 3000 nM	–	1.2
E28 [13], 4.1 nM	0.692	–
E28 [13], 12.3 nM	0.479	–
E28 [13], 37 nM	0.471	–
E28 [13], 111.1 nM	0.837	–
E28 [13], 333.3 nM	0.667	–
E28 [13], 1000 nM	0.843	–
E28 [13], 3000 nM	0.738	–
E31 [5], 4.1 nM	–	1.04
E31 [5], 12.3 nM	–	0.915
E31 [5], 37 nM	–	0.941
E31 [5], 111.1 nM	–	0.942
E31 [5], 333.3 nM	–	1.04
E31 [5], 1000 nM	–	0.944
E31 [5], 3000 nM	–	1.09
E31 [12], 4.1 nM	1.52	–
E31 [12], 12.3 nM	0.739	–
E31 [12], 37 nM	0.504	–
E31 [12], 111.1 nM	0.428	–
E31 [12], 333.3 nM	0.941	–
E31 [12], 1000 nM	0.478	–
E31 [12], 3000 nM	0.676	–
E34 [1], 4.1 nM	–	1.06
E34 [1], 12.3 nM	–	0.922
E34 [1], 37 nM	–	0.904
E34 [1], 111.1 nM	–	0.914
E34 [1], 333.3 nM	–	1.02
E34 [1], 1000 nM	–	0.91
E34 [1], 3000 nM	–	0.984
E34 [8], 4.1 nM	1.26	–
E34 [8], 12.3 nM	0.809	–
E34 [8], 37 nM	1.05	–
E34 [8], 111.1 nM	0.841	–
E34 [8], 333.3 nM	0.778	–
E34 [8], 1000 nM	0.516	–
E34 [8], 3000 nM	0.396	–
E57 [7], 4.1 nM	–	1.05
E57 [7], 12.3 nM	–	1.09
E57 [7], 37 nM	–	1.04
E57 [7], 111.1 nM	–	1.07
E57 [7], 333.3 nM	–	1.05
E57 [7], 1000 nM	–	1.09
E57 [7], 3000 nM	–	1.12
E57 [14], 4.1 nM	0.629	–
E57 [14], 12.3 nM	0.932	–
E57 [14], 37 nM	0.42	–
E57 [14], 111.1 nM	5.48	–
E57 [14], 333.3 nM	0.376	–
E57 [14], 1000 nM	0.318	–
E57 [14], 3000 nM	0.734	–
FT3469 [3], 4.1 nM	–	0.974
FT3469 [3], 12.3 nM	–	0.955
FT3469 [3], 37 nM	–	1.03
FT3469 [3], 111.1 nM	–	1.14
FT3469 [3], 333.3 nM	–	1.03
FT3469 [3], 1000 nM	–	0.998
FT3469 [3], 3000 nM	–	0.957
FT3469 [10], 4.1 nM	1.14	–
FT3469 [10], 12.3 nM	0.621	–
FT3469 [10], 37 nM	0.809	–
FT3469 [10], 111.1 nM	0.891	–
FT3469 [10], 333.3 nM	0.965	–
FT3469 [10], 1000 nM	0.266	–
FT3469 [10], 3000 nM	0.69	–
